Data taken from patent US9708328B2, “Pteridines useful as HCV inhibitors and methods for the preparation thereof” (Janssen Sciences Ireland UC, priority 2005, dated 2017).
Like-named read-outs stand apart in the source and are kept apart here.

Key:
[1] = system: HCV replicon (HCV type 1b) in Huh-7 luc/neo cells; experiment: Stable replicon cell reporter assay (Huh-Luc, luciferase readout); assay type: cell-based; details: Hepatitis C virus, Huh-7, 72 h, three days incubation, luciferase activity
Description: Stable Replicon Cell Reporter Assays:
The compounds of the present invention are examined for activity in the inhibition of HCV RNA replication in a cellular assay. […] The cellular assay is based on a bicistronic expression construct, as described by Lohmann et al. (1999) Science vol. 285 pp. 110-113 with modifications described by Krieger et al. (2001) Journal of Virology 75: 4614-4624, in a multi-target screening strategy. In essence, the method is as follows.
The assay utilizes the stably transfected cell line Huh-7 luc/neo (hereafter referred to as Huh-Luc). This cell line harbors an RNA encoding a bicistronic expression construct comprising the wild type NS3-NS5B regions of HCV type 1b translated from an Internal Ribosome Entry Site (IRES) from encephalomyocarditis virus (EMCV), preceded by a reporter portion (FfL-luciferase), and a selectable marker portion (neo^R, neomycine phosphotransferase). The construct is bordered by 5′ and 3′ NTRs (non-translated regions) from HCV type 1b. Continued culture of the replicon cells in the presence of G418 (neo^R) is dependent on the replication of the HCV RNA. The stably transfected replicon cells that express HCV RNA, which replicates autonomously and to high levels, encoding inter alia luciferase, are used for screening the antiviral compounds.
Cellular Assay Experimental Method:
The replicon cells are plated in 384 well plates in the presence of the test and control compounds which are added in various concentrations. Following an incubation of three days, HCV replication is measured by assaying luciferase activity (using standard luciferase assay substrates and reagents and a Perkin Elmer ViewLux™ ultraHTS microplate imager). Replicon cells in the control cultures have high luciferase expression in the absence of any inhibitor. The inhibitory activity of the compound on luciferase activity is monitored on the Huh-Luc cells, enabling a dose-response curve for each test compound.

[2] = Pharmacokinetic profile after single oral administration: plasma, heart and liver levels; assay type: in vivo, male Swiss SPF (CD1)-mice
Procedure: Compound nr. 21 was dissolved in a 10% hydroxypropyl-β-cyclodextrin (HP-β-CD) solution at a final concentration of 1 mg base-eq./ml, .pH 4.36.
Three animals were administered orally the solution of compound nr. 21 to obtain a dose of 20 mg base-eq./kg. Blood samples were taken at 30 min, 1, 2, 4, 8 and 24 h after oral dose administration. Plasma was obtained following centrifugation at 4° C. for 10 minutes at approximately 1900×g.
From each orally dosed animal individual samples of heart and liver were dissected and weighed. Tissue samples were homogenized in demineralized water.
Plasma and tissue samples were analysed for compound nr. 21, using a qualified research LC-MS/MS method.
A limited pharmacokinetic analysis was performed using WinNonlin™ Professional (Version 4.0.1). A non-compartmental analysis using the lin/log trapezoidal rule with lin/log interpolation was used for all data. The variability between animals is indicated by the standard deviation (st dev).

## Fc1ccc(Br)cc1-c1nc(Nc2ccncc2)c2nccnc2n1 [Compound 1, 2-(5-bromo-2-fluorophenyl)-4-(4-pyridylamino)pteridine]
[1]
  EC50: 352 nM

## CN(c1ccncc1)c1nc(-c2cc(Br)ccc2F)nc2nccnc12 [Compound 2, 2-(5-bromo-2-fluorophenyl)-4-[(methyl)(4-pyridyl)amino]pteridine]
[1]
  EC50: 3650 nM

## CCCCN(c1ccncc1)c1nc(-c2cc(Br)ccc2F)nc2nccnc12 [Compound 3, 4-[(butyl)(4-pyridyl)amino]-2-(5-bromo-2-fluorophenyl)pteridine]
[1]
  EC50: 2200 nM

## CC(C)(C)CCN(c1ccncc1)c1nc(-c2cc(Br)ccc2F)nc2nccnc12 [Compound 4, 2-(5-bromo-2-fluorophenyl)-4-[(3,3-dimethylbutyl)(4-pyridyl)amino]pteridine]
[1]
  EC50: 480 nM

## Fc1ccc(Br)cc1-c1nc(N(Cc2ccccc2)c2ccncc2)c2nccnc2n1 [Compound 5, 4-[(benzyl)(4-pyridyl)amino]-2-(5-bromo-2-fluorophenyl)pteridine]
[1]
  EC50: 990 nM

## Cc1cnccc1Nc1nc(-c2cc(Br)ccc2N2CCCC2)nc2nccnc12 [Compound 6, 2-(5-Bromo-2-pyrrolidin-1-ylphenyl)-4-(3-methyl-4-pyridylamino)pteridine]
[1]
  EC50: 18000 nM

## Cc1cnccc1Nc1nc(-c2cc(Br)ccc2F)nc2nccnc12 [Compound 7, 2-(5-bromo-2-fluorophenyl)-4-(3-methyl-4-pyridylamino)pteridine]
[1]
  EC50: 950 nM

## Fc1ccc(Br)cc1-c1nc(Nc2ccccc2)c2nccnc2n1 [Compound 8, 2-(5-bromo-2-fluorophenyl)-4-(phenylamino)pteridine]
[1]
  EC50: > 32000 nM

## Cc1ccccc1Nc1nc(-c2cc(Br)ccc2F)nc2nccnc12 [Compound 9, 2-(5-bromo-2-fluorophenyl)-4-(2-tolylamino)pteridine]
[1]
  EC50: 11000 nM

## CN(c1ccccc1)c1nc(-c2cc(Br)ccc2F)nc2nccnc12 [Compound 10, 2-(5-bromo-2-fluorophenyl)-4-[(methyl)(phenyl)amino]pteridine]
[1]
  EC50: 11000 nM

## OCCNc1nc(-c2cc(Br)ccc2F)nc2nccnc12 [Compound 11, 2-(5-bromo-2-fluorophenyl)-4-(2-hydroxyethylamino)pteridine]
[1]
  EC50: > 32000 nM

## Fc1ccc(Br)cc1-c1nc(N2CCN(c3ccccn3)CC2)c2nccnc2n1 [Compound 12, 2-(5-bromo-2-fluorophenyl)-4-[4-(2-pyridyl)piperazin-1-yl]pteridine]
[1]
  EC50: > 32000 nM

## COC(=O)c1cnccc1Nc1nc(-c2cc(Br)ccc2F)nc2nccnc12 [Compound 13, 4-[[2-(5-Bromo-2-fluorophenyl)pteridin-4-yl]amino]nicotinic acid methyl ester]
[1]
  EC50: 4900 nM

## Fc1ccc(Br)cc1-c1nc(Nc2ccc(N3CCOCC3)cc2)c2nccnc2n1 [Compound 14, 2-(5-bromo-2-fluorophenyl)-4-(4-morpholinophenylamino)pteridine]
[1]
  EC50: 8700 nM

## Cc1cc(Nc2nc(-c3cc(Br)ccc3F)nc3nccnc23)ccn1 [Compound 15, 2-(5-bromo-2-fluorophenyl)-4-(2-methyl-4-pyridylamino)pteridine]
[1]
  EC50: 3560 nM

## Clc1cccc(-c2nc(Nc3ccncc3)c3nccnc3n2)c1 [Compound 18, 2-(3-chlorophenyl)-4-(4-pyridylamino)pteridine]
[1]
  EC50: 1500 nM

## Cc1cccc(-c2nc(Nc3ccncc3C)c3nccnc3n2)n1 [Compound 19, 2-(2-methyl-6-pyridyl)-4-[(3-methyl-4-pyridyl)amino]pteridine]
[1]
  EC50: 12000 nM

## O=C(NCCCN1CCCC1=O)c1cnccc1Nc1nc(-c2cc(Br)ccc2F)nc2nccnc12 [Compound 21, 4-[[2-(5-bromo-2-fluorophenyl)pteridin-4-yl]amino]-N-[3-(2-oxopyrrolidin-1-yl)propyl]nicotinamide]
[1]
  EC50: 58 nM
[2]; heart, 20 mg base-eq./kg oral
  AUC0-inf: 1262 ng·h/mL
  AUC(0-8 h): 1119 ng·h/mL
  Tmax: 0.5 h
  t1/2 (2-8 h): 3.4 h
[2]; heart, 20 mg base-eq./kg oral (Table 4)
  Cmax: 678 ng/mL
[2]; heart, time 24 h, 20 mg base-eq./kg oral, n=3, LLOQ between 5.00 and 13.16 ng/g
  Mean tissue level, heart: BQL^1)
[2]; liver, 20 mg base-eq./kg oral
  AUC0-inf: 7973 ng·h/mL
  AUC(0-8 h): 6965 ng·h/mL
  Tmax: 0.5 h
  t1/2 (2-8 h): 3.5 h
[2]; liver, 20 mg base-eq./kg oral (Table 4)
  Cmax: 4057 ng/mL
[2]; liver, time 24 h, 20 mg base-eq./kg oral, n=3, LLOQ between 5.00 and 13.16 ng/g
  Mean tissue level, liver: BQL^1)
[2]; male, Swiss SPF (CD1), mouse, 20 mg/kg, heart, 0.5 h post dose, 20 mg base-eq./kg oral, read-out: Mean maximum tissue concentration (Cmax)
  Cmax: 678 ng/g
[2]; male, Swiss SPF (CD1), mouse, 20 mg/kg, liver, 0.5 h post dose, 20 mg base-eq./kg oral, read-out: Mean maximum tissue concentration (Cmax)
  Cmax: 4060 ng/g
[2]; male, Swiss SPF (CD1), mouse, plasma, time 0.5 h, 20 mg base-eq./kg oral, n=3, read-out: Mean plasma level
  concentration at 0.5 h: 220 ng/mL
[2]; male, Swiss SPF (CD1), mouse, plasma, time 1 h, 20 mg base-eq./kg oral, n=3, read-out: Mean plasma level
  concentration at 1 h: 166 ng/mL
[2]; male, Swiss SPF (CD1), mouse, plasma, time 2 h, 20 mg base-eq./kg oral, n=3, read-out: Mean plasma level
  concentration at 2 h: 21.7 ng/mL
[2]; male, Swiss SPF (CD1), mouse, plasma, time 4 h, 20 mg base-eq./kg oral, n=3, read-out: Mean plasma level
  concentration at 4 h: 20.3 ng/mL
[2]; male, Swiss SPF (CD1), mouse, plasma, time 8 h, 20 mg base-eq./kg oral, n=3, read-out: Mean plasma level
  concentration at 8 h: 5.52 ng/mL
[2]; plasma, 20 mg base-eq./kg oral
  AUC0-inf: 332 ng·h/mL
  AUC(0-8 h): 309 ng·h/mL
  Cmax: 220 ng/mL
  Tmax: 0.5 h
  t1/2 (2-8 h): 2.9 h
[2]; plasma, time 24 h, 20 mg base-eq./kg oral, n=3, LLOQ 0.500 ng/ml
  Mean plasma level: BQL^1)

## Fc1ccc(Br)cc1-c1nc(N(CCc2ccccc2)c2ccncc2)c2nccnc2n1 [Compound 22, 2-(5-bromo-2-fluorophenyl)-4-[(phenethyl)(4-pyridyl)amino]-pteridine]
[1]
  EC50: 1960 nM

## CCc1cnccc1Nc1nc(-c2cc(Cl)ccc2F)nc2nccnc12 [Compound 23, 2-(5-chloro-2-fluorophenyl)-4-(3-ethyl-4-pyridylamino)pteridine]
[1]
  EC50: 520 nM

## Fc1ccc(Cl)cc1-c1nc(Nc2ccncc2)c2nccnc2n1 [Compound 24, 2-(5-chloro-2-fluorophenyl)-4-(4-pyridylamino)pteridine]
[1]
  EC50: 780 nM

## Cc1cnccc1Nc1nc(-c2cc(Cl)ccc2F)nc2nccnc12 [Compound 25, 2-(5-chloro-2-fluorophenyl)-4-(3-methyl-4-pyridylamino)pteridine]
[1]
  EC50: 480 nM

## FC(F)(F)c1cccc(-c2nc(Nc3ccncc3)c3nccnc3n2)c1 [Compound 26, 2-(3-trifluoromethylphenyl)-4-(4-pyridylamino)pteridine]
[1]
  EC50: 2000 nM

## Fc1cccc(-c2nc(Nc3ccncc3)c3nccnc3n2)c1 [Compound 27, 2-(3-fluorophenyl)-4-(4-pyridylamino)pteridine]
[1]
  EC50: 3000 nM
